Results on 1 compound are retold here after US20150201661A1, “BAMBOO EXTRACTS, COMPOSITIONS AND USES THEREOF” (priority 2014, published 2015).

Common to all, as to format: in vivo, Pseudosciaena crocea
Assay [1] in a line: Body weight and fat content of large yellow croaker. The conditions noted are these: 5 months, feed with GBE 3.0 g/kg or astaxanthin 1.0 g/kg. The text has this: (§1) Yellow croaker fish (Pseudosciaena crocea) are an important marine economic fish in China. One thousand and eight hundred of large yellow croakers with the average weight of 150.06±11.35 g, were randomly selected into three groups (each group represented by three replicates of 200 large yellow croakers each). The GBE group and astaxanthin group were feed with complete formula puffed pellet feed rich in 3.0 g/kg of GBE and 1.0 g/kg of astaxanthin, respectively. Astaxanthin is an accepted dietary additive, but is quite expensive. The reference group was feed with chilled miscellaneous fish and shrimp. The breeding time was five months. Feeding was stopped 24 h after the test. Eight test large yellow croakers were randomly selected from each replicate group (that is, 24 test large yellow croakers each group). The selected fish were weighed, the livers were segmented, and the abdominal and back muscles examined after they were killed. Adequate amount of fresh back and abdominal muscle were used for sensory evaluation, the rest were sub-packaged and stored on −20° C. refrigerator for further use. The fat content of liver and fish and the superoxide dismutase (SOD) activity, catalase (CAT) activity, malondialdehyde (MDA) content, leptin content, adiponectin content of liver were detected.

The test system of assay [2] is leptin. The assay can be described thus: Leptin level in the liver of large yellow croaker. The following applies: 5 months, feed with GBE 3.0 g/kg or astaxanthin 1.0 g/kg.
Excerpt: as §1

The subject of assay [3] is adiponectin. Put plainly: Adiponectin level in the liver of large yellow croaker. The conditions noted are these: 5 months, feed with GBE 3.0 g/kg or astaxanthin 1.0 g/kg.
Excerpt: as §1

Assay [4] concerns superoxide dismutase (SOD). Put plainly: SOD activity in liver of large yellow croaker. The following applies: 5 months, feed with GBE 3.0 g/kg or astaxanthin 1.0 g/kg.
Excerpt: as §1

The subject of assay [5] is catalase (CAT). Put plainly: CAT activity in liver of large yellow croaker. The following applies: 5 months, feed with GBE 3.0 g/kg or astaxanthin 1.0 g/kg.
Excerpt: as §1

For assay [6], the system named is malondialdehyde (MDA). Put plainly: MDA content (lipid peroxidation) in liver of large yellow croaker. The following applies: 5 months, feed with GBE 3.0 g/kg or astaxanthin 1.0 g/kg.
Excerpt: as §1

Assay [7] has as its system back muscle tissue. Put plainly: Transmission electron microscopy of back muscle of large yellow croakers. The conditions noted are these: FIG. 4.
Excerpt: as §1

Marks after values point to notes of the source that are not given here.

For the compound `CC1=C(/C=C/C(C)=C/C=C/C(C)=C/C=C/C=C(C)/C=C/C=C(C)/C=C/C2=C(C)C(=O)[C@@H](O)CC2(C)C)C(C)(C)C[C@H](O)C1=O` [ASTA, astaxanthin], the “overall body weight vs reference group” value in assay [1] (FIG. 3) is recorded as “no significant differences”. Also, in assay [1] (p<0.05), the “fat content of liver vs reference group” value is “significantly lower” and the “fat content of muscle vs reference group” value was “significantly lower”. Further, the “LEPTIN level in the liver” value in assay [2] was 1.08 ± 0.12^b ng/mL. Moreover, in assay [3], the “ADIPONECTIN level in the liver” value was 2.57 ± 0.33^c ug/mL. Moreover, in assay [4], the “SOD activity in the liver” value is reported as 157.35 ± 10.24^a U/mg prot. Besides, in assay [5], the “CAT activity in the liver” value is on record as 22.56 ± 3.11^a U/mg prot and the “CAT/SOD ratio in the liver” value is 0.13 ± 0.01^a. The compound also displayed an MDA level in the liver in assay [6] of 118 ± 9.33 nmol/mg prot. Further, in assay [7] (TEM 10000 times), the “clearance of muscle bundle, order of groups” value is given as “reference group<GBE group<astaxanthin group”. Moreover, the “quantity of mitochondria, order of groups” value in assay [7] (TEM 12000 times) is “reference group<GBE group<astaxanthin group”.
